ChEMBL document CHEMBL4184167, “Fluoroethoxy-1,4-diphenethylpiperidine and piperazine derivatives: Potent and selective inhibitors of [3H]dopamine uptake at the vesicular monoamine transporter-2” (Bioorg Med Chem Lett, 2017)

Tests used:
[1] = Half life in Sprague-Dawley rat plasma; assay type: ADME, cell-free
[2] = biological target: Synaptic vesicular amine transporter (Rattus norvegicus, UniProt Q01827); test: Inhibition of [3H]dopamine uptake at VMAT2 in rat striatal synaptic vesicles by scintillation spectrometry
[3] = biological target: Sodium-dependent serotonin transporter (Rattus norvegicus, UniProt P31652); test: Inhibition of [3H]serotonin uptake at SERT in rat striatal synaptosomes preincubated for 5 mins followed by radioligand addition measured after 10 mins by scintillation spectrometry; assay type: subcellular, Striatum
[4] = biological target: Voltage-gated inwardly rectifying potassium channel KCNH2 (Homo sapiens, UniProt Q12809); test: Displacement of [3H]Dofetilide from human ERG expressed in HEK293 cells after 60 mins by scintillation spectrometry
[5] = biological target: Sodium-dependent dopamine transporter (Rattus norvegicus, UniProt P23977); test: Inhibition of [3H]dopamine uptake at dopamine transporter in rat striatal synaptosomes preincubated for 5 mins followed by radioligand addition measured after 10 mins by scintillation spectrometry; assay type: subcellular, Striatum
Sodium-dependent dopamine transporter, sequence (P23977 whole entry): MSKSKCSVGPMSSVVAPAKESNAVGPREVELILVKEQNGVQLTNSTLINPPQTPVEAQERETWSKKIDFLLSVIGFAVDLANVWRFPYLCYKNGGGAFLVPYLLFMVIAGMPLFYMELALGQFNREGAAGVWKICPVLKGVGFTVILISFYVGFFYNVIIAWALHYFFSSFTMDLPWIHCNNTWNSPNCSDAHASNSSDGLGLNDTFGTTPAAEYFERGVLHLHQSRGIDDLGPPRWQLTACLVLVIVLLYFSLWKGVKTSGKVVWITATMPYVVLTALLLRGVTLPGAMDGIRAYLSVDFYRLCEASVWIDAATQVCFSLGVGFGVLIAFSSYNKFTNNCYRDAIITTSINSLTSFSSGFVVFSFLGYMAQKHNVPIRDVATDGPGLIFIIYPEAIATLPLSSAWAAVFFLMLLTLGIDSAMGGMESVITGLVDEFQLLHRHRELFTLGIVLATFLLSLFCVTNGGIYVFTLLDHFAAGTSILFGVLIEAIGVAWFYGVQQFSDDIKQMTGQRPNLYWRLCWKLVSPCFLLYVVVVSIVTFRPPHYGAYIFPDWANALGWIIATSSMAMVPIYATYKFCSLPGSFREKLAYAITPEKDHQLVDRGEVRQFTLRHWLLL

Synaptic vesicular amine transporter, sequence (Q01827 whole entry): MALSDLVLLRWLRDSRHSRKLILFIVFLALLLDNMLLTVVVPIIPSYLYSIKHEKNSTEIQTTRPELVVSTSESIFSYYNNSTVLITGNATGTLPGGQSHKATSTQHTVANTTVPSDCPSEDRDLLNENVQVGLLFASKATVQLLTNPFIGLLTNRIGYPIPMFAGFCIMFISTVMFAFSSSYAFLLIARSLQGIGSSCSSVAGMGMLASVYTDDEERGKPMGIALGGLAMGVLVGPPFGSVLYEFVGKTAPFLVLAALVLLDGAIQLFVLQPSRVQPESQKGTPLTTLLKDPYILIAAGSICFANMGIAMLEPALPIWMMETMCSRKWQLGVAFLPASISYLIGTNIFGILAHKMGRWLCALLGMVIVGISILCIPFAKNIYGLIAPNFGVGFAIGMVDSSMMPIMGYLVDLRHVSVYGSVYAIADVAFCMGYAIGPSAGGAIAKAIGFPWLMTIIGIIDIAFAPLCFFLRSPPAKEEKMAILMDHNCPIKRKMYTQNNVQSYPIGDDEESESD
Sodium-dependent serotonin transporter, sequence (P31652 whole entry): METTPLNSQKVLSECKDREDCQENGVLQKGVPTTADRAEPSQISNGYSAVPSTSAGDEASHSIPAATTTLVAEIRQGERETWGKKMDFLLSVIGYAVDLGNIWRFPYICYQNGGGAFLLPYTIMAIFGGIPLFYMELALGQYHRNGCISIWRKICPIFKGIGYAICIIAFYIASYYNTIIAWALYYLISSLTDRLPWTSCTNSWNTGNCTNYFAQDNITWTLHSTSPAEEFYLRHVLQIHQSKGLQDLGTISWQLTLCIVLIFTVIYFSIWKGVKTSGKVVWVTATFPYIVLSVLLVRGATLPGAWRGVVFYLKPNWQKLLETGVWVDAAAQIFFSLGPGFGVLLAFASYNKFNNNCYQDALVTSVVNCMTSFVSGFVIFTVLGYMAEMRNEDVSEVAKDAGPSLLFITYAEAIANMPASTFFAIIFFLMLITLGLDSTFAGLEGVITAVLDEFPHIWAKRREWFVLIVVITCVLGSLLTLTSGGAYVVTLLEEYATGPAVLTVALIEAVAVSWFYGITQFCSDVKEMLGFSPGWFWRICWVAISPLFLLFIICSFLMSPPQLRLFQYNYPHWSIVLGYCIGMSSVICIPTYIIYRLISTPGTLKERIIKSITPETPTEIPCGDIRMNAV
Voltage-gated inwardly rectifying potassium channel KCNH2, sequence (Q12809 whole entry): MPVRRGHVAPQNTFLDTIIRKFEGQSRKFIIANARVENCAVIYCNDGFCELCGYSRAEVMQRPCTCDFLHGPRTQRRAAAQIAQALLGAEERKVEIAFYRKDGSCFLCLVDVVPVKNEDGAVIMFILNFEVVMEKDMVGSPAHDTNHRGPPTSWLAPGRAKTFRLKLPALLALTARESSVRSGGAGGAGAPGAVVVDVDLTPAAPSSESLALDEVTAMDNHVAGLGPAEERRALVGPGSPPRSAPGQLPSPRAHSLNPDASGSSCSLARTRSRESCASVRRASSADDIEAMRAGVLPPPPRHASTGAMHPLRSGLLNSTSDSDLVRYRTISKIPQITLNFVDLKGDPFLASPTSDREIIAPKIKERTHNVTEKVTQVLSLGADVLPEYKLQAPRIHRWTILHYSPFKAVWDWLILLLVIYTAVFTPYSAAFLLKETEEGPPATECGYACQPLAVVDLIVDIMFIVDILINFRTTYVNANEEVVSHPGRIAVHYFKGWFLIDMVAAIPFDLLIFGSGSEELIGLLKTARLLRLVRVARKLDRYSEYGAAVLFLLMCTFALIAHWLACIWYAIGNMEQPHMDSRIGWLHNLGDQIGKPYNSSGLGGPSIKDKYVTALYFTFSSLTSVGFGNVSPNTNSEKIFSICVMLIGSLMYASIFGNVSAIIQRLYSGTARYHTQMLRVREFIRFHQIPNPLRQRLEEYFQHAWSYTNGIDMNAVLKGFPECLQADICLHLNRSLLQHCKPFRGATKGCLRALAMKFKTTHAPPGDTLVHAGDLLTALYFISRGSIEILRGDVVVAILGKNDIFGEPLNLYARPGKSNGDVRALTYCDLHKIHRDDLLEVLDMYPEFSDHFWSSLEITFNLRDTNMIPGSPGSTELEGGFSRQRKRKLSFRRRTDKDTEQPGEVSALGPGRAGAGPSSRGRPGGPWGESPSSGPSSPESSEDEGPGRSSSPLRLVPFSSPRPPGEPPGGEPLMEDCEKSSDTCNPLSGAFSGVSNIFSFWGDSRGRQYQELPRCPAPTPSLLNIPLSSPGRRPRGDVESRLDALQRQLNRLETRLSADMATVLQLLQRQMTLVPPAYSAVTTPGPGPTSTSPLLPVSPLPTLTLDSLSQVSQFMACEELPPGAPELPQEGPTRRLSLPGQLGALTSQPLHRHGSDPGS

| SMILES | half-life [1] | Ki [2] | Ki [3] | IC50 [4] | Ki [5] |
| --- | --- | --- | --- | --- | --- |
| CN1[C@@H](CC(=O)c2ccccc2)CCC[C@H]1C[C@H](O)c1ccccc1 [LOBELINE] | 50 min |  |  |  |  |
| FCCOc1ccccc1CCN1CCN(CCc2ccccc2Cl)CC1 |  | 14 nM | 72 nM | 850 nM |  |
| FCCOc1ccc(CCN2CCC(CCc3ccccc3)CC2)cc1 |  | 150 nM | 390 nM | 350 nM | 1060 nM |
| FCCOc1ccccc1CCC1CCN(CCc2ccc(F)cc2)CC1 |  | 27 nM |  |  |  |
| FCCOc1ccc(CCN2CCN(CCc3ccccc3Cl)CC2)cc1 |  | 450 nM | 480 nM | 1400 nM |  |
| FCCOc1cccc(CCC2CCN(CCc3ccccc3)CC2)c1 |  | 53 nM |  |  | 3140 nM |
| COc1ccc(CCN2CCC(CCc3cccc(OCCF)c3)CC2)cc1 |  | 67 nM | 660 nM | 280 nM |  |
| COc1ccccc1CCN1CCC(CCc2cccc(OCCF)c2)CC1 |  | 61 nM | 470 nM | 800 nM |  |
| FCCOc1ccc(CCN2CCN(CCc3ccccc3)CC2)cc1 |  | 600 nM | 3370 nM | 3050 nM | 2740 nM |
| FCCOc1ccccc1CCC1CCN(CCc2ccccc2)CC1 |  | 35 nM |  |  |  |
| FCCOc1ccccc1CCN1CCN(CCc2ccc(F)cc2)CC1 |  | 24 nM | 300 nM |  |  |
| FCCOc1ccc(CCC2CCN(CCc3ccccc3Cl)CC2)cc1 |  | 190 nM | 3620 nM |  |  |
| FCCOc1cccc(CCN2CCC(CCc3ccccc3)CC2)c1 |  | 24 nM |  |  |  |
| COc1ccccc1CCN1CCC(CCc2ccccc2OCCF)CC1 |  | 25 nM |  |  |  |
| FCCOc1cccc(CCN2CCN(CCc3ccccc3)CC2)c1 |  | 73 nM |  |  |  |
| COc1ccc(CCN2CCC(CCc3ccccc3OCCF)CC2)cc1 |  | 73 nM |  | 350 nM |  |
